From BindingDB's records for doi:10.7270/Q2H70D5W (University of Pittsburgh, 2007)

Target: Gag-Pol polyprotein (Human immunodeficiency virus type 1 group M subtype B (isolate HXB2), UniProt P04585)
Assay: HIV-1 RT RNase H inhibitor potency, dose response, biochemical, probe assessment (AID 652)
Conditions: pH 8; 23 °C

| SMILES | IC50 [µM] |
| --- | --- |
| Cn1ccnc1P(=S)(c1nccn1C)N1CCOCC1 [MLS000054793] | 11.8 |
| Cc1cccc(-n2c(N)c(C(=O)N3CCN(C)CC3)sc2=S)c1 [MLS000056753] | 45.1 |
| CC(C)Cn1c(SCC(=O)NC(=O)Nc2ccc3c(c2)OCCO3)nc2ccccc2c1=O [MLS000057544] | 4.47 |
| Cc1sc(NC(=O)c2oc3ccccc3c2C)c(C#N)c1C [MLS000065828] | 10.8 |
| CCCc1cc(C(N)=O)c(NC(=O)C2CCCO2)s1 (stereo not drawn) [MLS000065925] | 1.89 |
| COc1ccc(OC)c(C=Nc2oc(-c3ccco3)c(-c3ccco3)c2C#N)c1 [MLS000068778] | 4.02 |
| Cc1ccc(NC(=O)CSc2nnc(-c3ccc(S(=O)(=O)N4CCCC4)cc3)o2)cc1C [MLS000071775] | 12.3 |
| O=C(NC1CCS(=O)(=O)C1)c1c(NC(=O)C2COc3ccccc3O2)sc2c1CCCC2 (stereo not drawn) [MLS000077500] | 46.3 |
| CCC1CC2(C)NC(=O)c3c(sc4c3CC(C)(C)OC4)N2C1=O (stereo not drawn) [MLS000077638] | 2.88 |
| Cc1cccc(N2CSC3=C(C#N)C(c4ccc(C)o4)CC(=O)N3C2)c1 (stereo not drawn) [MLS000080648] | 0.434 |
| COc1cc(OC)c(C2CC(=O)N3CN(c4ccccc4C)CSC3=C2C#N)cc1OC (stereo not drawn) [MLS000080656] | 4.51 |
| O=S(=O)(NS1=CC=CCN1S(=O)(=O)c1ccccc1)c1ccccc1 (stereo not drawn) [MLS000081951] | 4.33 |
| CCOC(=O)Cc1csc(-n2sc3ccccc3c2=O)n1 [MLS000082162] | 0.598 |
| CC(C)c1nc2sc3c(SCC(=O)NCc4ccco4)ncnc3c2c2c1CCC2 [MLS000082582] | 2.28 |
| CC(C)Sc1nc2sc3c(c2c2nnc(SCC(=O)NCc4ccco4)n12)CCCC3 [MLS000082957] | 3.01 |
| COc1cccc(OC)c1-c1nn2c(-c3cc(-c4ccccc4)n[nH]3)nnc2s1 [MLS000083027] | 3.81 |
| O=C(CSc1nnnn1-c1ccccc1)Nc1nsc(-c2ccc(Cl)cc2)n1 [MLS000085595] | 15.7 |
| CCOC(=O)N(c1ccccc1)P1(=S)OCCO1 [MLS000090301] | 3.25 |
| CCCSc1nc2c(cnn2-c2ccc(Cl)cc2)c(=O)[nH]1 [MLS000091828] | 9.64 |
| COc1cccc(OCC(=O)Nc2c(C(=O)Nc3ccc(OC)cc3OC)oc3ccccc23)c1 [MLS000093002] | 1.77 |
| CCOC(=O)c1sc(=S)n2c1[nH]c(=O)c1ccc(C(=O)OC)cc12 [MLS000094734] | 0.648 |
| CC(C)C1N=C2c3ccccc3N=C(SCC(=O)c3ccc(O)c(O)c3)N2C1=O (stereo not drawn) [MLS000094866] | 0.59 |
| CCCCC(CC)Cn1c2nc3ccccc3nc2c2c(=N)oc(C)nc21 (stereo not drawn) [MLS000098038] | 2.33 |
| O=C(CSc1nc2sc3c(c2c(=O)n1-c1ccccc1)CCCC3)NCc1ccco1 [MLS000115858] | 17.2 |

| SMILES | IC50 [µM] |
| --- | --- |
| CCCc1cc(C(=O)Nc2sc3c(c2C#N)CCC3)no1 [MLS000116386] | 2.8 |
| CC(C)Cc1cc(C(=O)Nc2sc3c(c2C#N)CCCC3)no1 [MLS000116410] | 4.76 |
| CC(C)c1ccc(C2CC(=O)N3CN(C)CSC3=C2C#N)cc1 (stereo not drawn) [MLS000117258] | 10.7 |
| COc1ccc(N2CSC3=C(C#N)C(c4cc(OC)c(OC)cc4OC)CC(=O)N3C2)c(OC)c1 (stereo not drawn) [MLS000117261] | 11.9 |
| COc1ccc(OC)c(CCNC(=O)Cn2sc3nc(C)cc(C)c3c2=O)c1 [MLS000118887] | 3.08 |
| CC(=O)N(Cc1cc(=O)[nH]c2ccccc12)c1cccc(C)c1 [N-(3-methylphenyl)-N-[(2-oxidanylidene-1H-quinolin-4-yl)methyl]ethanamide] | 5.08 |
| CCC(C)c1ccc2oc(-c3ccc(NC(=O)c4nnc[nH]4)cc3)nc2c1 (stereo not drawn) [N-[4-(5-sec-butyl-1,3-benzoxazol-2-yl)phenyl]-1H-1,2,4-triazole-3-carboxamide] | 6.07 |
| COc1ccc(OC)c(S(=O)(=O)Nc2ccc(O)c(Sc3nc[nH]n3)c2)c1 [N-[4-hydroxy-3-(1H-1,2,4-triazol-3-ylthio)phenyl]-2,5-dimethoxybenzenesulfonamide] | 2.46 |
| COC(=O)c1ccccc1S(=O)(=O)N(Cc1cc2cc3c(cc2[nH]c1=O)OCO3)C1CCCCC1 [SMR000002998] | 21.1 |
| CCC(C)Sc1nc2c(c(=O)[nH]c(=O)n2C)n1CC(O)COc1cccc2ccccc12 (stereo not drawn) [SMR000009990] | 4 |
| CC1=C(SCCC#N)S/C(=C2\SC(C)=C(SCCC#N)S2)S1 [SMR000011057] | 2.8 |
| COC(=O)c1cccc(N2C(=O)C(Cl)=C(N3CCOCC3)C2=O)c1 [SMR000014938] | > 50 |
| COc1ccc(-n2c(SCC(=O)N3CCCC3)nc3c([nH]c4ccccc43)c2=O)cc1 [SMR000018494] | 16.6 |
| COc1ccc(C2C(C(C)=O)=C(C)N=c3sc(=Cc4ccc5c(c4)OCO5)c(=O)n32)cc1 (stereo not drawn) [SMR000020852] | 7.02 |
| COc1cc(/N=c2/ssnc2Cl)cc(OC)c1OC [SMR000025034] | 0.281 |
| O=C(NC1CCCCC1)c1sc(=S)n2c1[nH]c(=O)c1ccccc12 [SMR000030293] | 0.645 |
| CCCCCCNC(=O)c1c(N)n(N=Cc2ccco2)c2nc3ccccc3nc12 [SMR000042381] | 2.77 |
| Cc1nn(CCc2nc(-c3ccco3)cs2)c2nc(O)cc(C(F)(F)F)c12 [SMR000060922] | 1.97 |
| CCOC(=O)C1=C(C)N=c2s/c(=C3/C(=O)Nc4ccccc43)c(=O)n2C1c1ccc2c(c1)OCO2 (stereo not drawn) [SMR000072283] | 1.07 |
| S=c1[nH]c(C2CC2)nc2ccccc12 [SMR000075851] | 2.06 |
| CCOC(=O)c1sc(NC(=O)CSc2nnc(-c3ccccc3)[nH]2)c(C#N)c1C [ethyl 4-cyano-3-methyl-5-[[2-[(5-phenyl-1H-1,2,4-triazol-3-yl)sulfanyl]acetyl]amino]thiophene-2-carboxylate] | 0.67 |
| CCOC(=O)c1c(C)[nH]c(C(=O)CSc2nc3ccccc3o2)c1C [ethyl 5-[2-(1,3-benzoxazol-2-ylsulfanyl)ethanoyl]-2,4-dimethyl-1H-pyrrole-3-carboxylate] | 7.6 |
| COC(=O)c1ccc2c(=O)[nH]c(CN3c4ccccc4CC3C)nc2c1 (stereo not drawn) [methyl 2-[(2-methyl-2,3-dihydroindol-1-yl)methyl]-4-oxo-1H-quinazoline-7-carboxylate] | 13.3 |
| C=CCOC(=O)C1=C(C)N=C(SCC(=O)Nc2ccc(C)c(Cl)c2)C(C#N)C1c1ccco1 (stereo not drawn) [prop-2-enyl 6-[2-(3-chloro-4-methylanilino)-2-oxoethyl]sulfanyl-5-cyano-4-(furan-2-yl)-2-methyl-1,4-dihydropyridine-3-carboxylate] | 4.25 |
